Measurements from ChEMBL document CHEMBL1909046, “DrugMatrix in vitro pharmacology data”.

Tests used:
[1] = DRUGMATRIX: Purinergic P2X radioligand binding (ligand: [3H] alpha, beta-Methylene-ATP); assay type: cell membranes, Oryctolagus cuniculus, New Zealand albino, Urinary bladder, Membrane; conditions: Not Active = under 50% inhibition at 10 µM
Melanocortin receptor 3 = Melanocortin receptor 3 (Homo sapiens, UniProt P41968); assay type: cell membranes, Membrane; conditions: hek293; further: in other assays of this panel Not Active means under 50% inhibition at 10 µM
Melanocortin receptor 3, sequence (P41968 whole entry): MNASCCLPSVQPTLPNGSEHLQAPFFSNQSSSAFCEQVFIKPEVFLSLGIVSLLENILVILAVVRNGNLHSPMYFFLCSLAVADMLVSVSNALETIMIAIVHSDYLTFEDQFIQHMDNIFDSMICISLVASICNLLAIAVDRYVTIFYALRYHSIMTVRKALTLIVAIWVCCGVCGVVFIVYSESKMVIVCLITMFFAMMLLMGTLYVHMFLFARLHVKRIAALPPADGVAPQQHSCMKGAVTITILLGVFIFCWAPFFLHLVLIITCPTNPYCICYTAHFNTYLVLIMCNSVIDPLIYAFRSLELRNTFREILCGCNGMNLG

[2] = biological target: Tyrosine-protein kinase Fyn (Homo sapiens, UniProt P06241); test: biochemical; assay type: cell-based, Insect cells;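 further: enzymatic inhibition of Fyn kinase activity measured with Poly(Glu:Tyr) as the phosphorylation substrate; in other assays of this panel Not Active means under 50% inhibition at 10 µM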
Tyrosine-protein kinase Fyn, sequence (P06241 whole entry): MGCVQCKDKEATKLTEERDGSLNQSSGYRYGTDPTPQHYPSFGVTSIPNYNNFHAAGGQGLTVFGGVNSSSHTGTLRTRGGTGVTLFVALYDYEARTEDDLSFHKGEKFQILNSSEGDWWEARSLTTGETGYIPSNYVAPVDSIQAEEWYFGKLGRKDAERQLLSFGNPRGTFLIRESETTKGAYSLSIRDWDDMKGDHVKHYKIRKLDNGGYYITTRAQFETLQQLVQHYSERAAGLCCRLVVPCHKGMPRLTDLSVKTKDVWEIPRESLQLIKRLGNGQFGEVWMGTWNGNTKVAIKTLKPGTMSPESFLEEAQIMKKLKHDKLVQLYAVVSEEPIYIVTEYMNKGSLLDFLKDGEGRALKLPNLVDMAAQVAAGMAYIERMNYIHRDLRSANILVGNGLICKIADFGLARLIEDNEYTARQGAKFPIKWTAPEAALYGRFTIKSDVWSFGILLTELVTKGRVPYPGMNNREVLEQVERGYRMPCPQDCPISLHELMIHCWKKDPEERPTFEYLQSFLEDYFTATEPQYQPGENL

[3] = biological target: T1, C-C chemokine receptor type 4 (Homo sapiens, UniProt P51679); assay type: cell membranes, Membrane; conditions: chem-1; further: in other assays of this panel Not Active means under 50% inhibition at 10 µM
T1 sequence (P51679 whole entry): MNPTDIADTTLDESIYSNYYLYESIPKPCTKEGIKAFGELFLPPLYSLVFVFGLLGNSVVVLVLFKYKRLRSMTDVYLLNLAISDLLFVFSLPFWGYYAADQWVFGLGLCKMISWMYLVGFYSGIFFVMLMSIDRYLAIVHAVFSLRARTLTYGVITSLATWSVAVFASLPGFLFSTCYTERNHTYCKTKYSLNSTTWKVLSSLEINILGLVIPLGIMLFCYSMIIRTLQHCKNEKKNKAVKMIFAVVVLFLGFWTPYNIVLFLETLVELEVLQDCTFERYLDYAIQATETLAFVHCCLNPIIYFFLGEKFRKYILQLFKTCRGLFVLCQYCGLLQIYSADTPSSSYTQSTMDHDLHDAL

Histamine H2 receptor = Histamine H2 receptor (Homo sapiens, UniProt P25021); assay type: cell membranes, CHO-K1, Membrane; conditions: cho-k1; further: in other assays of this panel Not Active means under 50% inhibition at 10 µM
Histamine H2 receptor, sequence (P25021 whole entry): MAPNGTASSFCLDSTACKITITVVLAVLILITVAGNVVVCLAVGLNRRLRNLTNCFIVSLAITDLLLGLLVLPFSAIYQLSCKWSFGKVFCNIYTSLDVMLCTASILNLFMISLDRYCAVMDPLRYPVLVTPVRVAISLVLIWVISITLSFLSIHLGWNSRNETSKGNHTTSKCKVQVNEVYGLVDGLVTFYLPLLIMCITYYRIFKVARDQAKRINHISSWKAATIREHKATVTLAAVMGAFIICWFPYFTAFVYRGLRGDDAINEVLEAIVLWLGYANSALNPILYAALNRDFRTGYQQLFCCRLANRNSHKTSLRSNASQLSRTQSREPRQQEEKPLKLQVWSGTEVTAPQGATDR

[4] = biological target: cGMP-specific 3',5'-cyclic phosphodiesterase (Homo sapiens, UniProt O76074); test: DRUGMATRIX: Phosphodiesterase PDE5 enzyme inhibition (substrate: [3H]cGMP + cGMP); assay type: tissue-based; conditions: platelet; Not Active = under 50% inhibition at 10 µM
[5] = DRUGMATRIX: beta-Lactamase enzyme inhibition (substrate: Nitrocefin); design: species or system Bacillus cereus; conditions: Not Active = under 50% inhibition at 10 µM
Melanocortin receptor 5 = Melanocortin receptor 5 (Homo sapiens, UniProt P33032); assay type: cell membranes, Membrane; conditions: hek293; further: in other assays of this panel Not Active means under 50% inhibition at 10 µM
Melanocortin receptor 5, sequence (P33032 whole entry): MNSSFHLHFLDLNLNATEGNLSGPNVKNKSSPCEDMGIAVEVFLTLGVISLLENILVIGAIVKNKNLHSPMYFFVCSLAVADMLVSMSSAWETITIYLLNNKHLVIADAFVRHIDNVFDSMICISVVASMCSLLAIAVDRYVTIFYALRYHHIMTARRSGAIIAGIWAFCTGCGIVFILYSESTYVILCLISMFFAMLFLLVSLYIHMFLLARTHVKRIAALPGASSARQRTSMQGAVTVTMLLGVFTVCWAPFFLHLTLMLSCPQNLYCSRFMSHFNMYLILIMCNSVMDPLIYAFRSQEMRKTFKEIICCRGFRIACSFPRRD

[6] = biological target: Protein kinase C alpha type (Homo sapiens, UniProt P17252); assay type: cell-based; conditions: sf9
Interstitial collagenase = biological target: T2, Interstitial collagenase (Homo sapiens, UniProt P03956); test: biochemical; assay type: tissue-based, Rheumatoid synovial fibroblasts
T2 sequence (P03956 whole entry): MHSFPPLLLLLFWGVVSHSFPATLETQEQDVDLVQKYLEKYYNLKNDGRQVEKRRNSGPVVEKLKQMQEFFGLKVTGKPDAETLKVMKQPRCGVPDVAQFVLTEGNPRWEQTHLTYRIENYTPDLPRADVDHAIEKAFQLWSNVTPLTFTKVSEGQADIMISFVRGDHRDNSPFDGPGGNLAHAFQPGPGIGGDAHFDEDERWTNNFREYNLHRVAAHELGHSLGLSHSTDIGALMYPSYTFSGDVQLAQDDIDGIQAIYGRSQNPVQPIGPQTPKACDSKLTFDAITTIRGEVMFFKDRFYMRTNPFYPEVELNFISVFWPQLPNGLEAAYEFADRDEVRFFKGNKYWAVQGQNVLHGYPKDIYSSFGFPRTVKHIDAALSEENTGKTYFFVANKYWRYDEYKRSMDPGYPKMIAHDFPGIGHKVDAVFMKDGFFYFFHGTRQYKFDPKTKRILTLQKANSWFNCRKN

[7] = biological target: T3, 5-hydroxytryptamine receptor 1A (Rattus norvegicus, UniProt P19327); assay type: cell membranes, Membrane; conditions: cho-k1; further: in other assays of this panel Not Active means under 50% inhibition at 10 µM
T3 sequence (P19327 whole entry): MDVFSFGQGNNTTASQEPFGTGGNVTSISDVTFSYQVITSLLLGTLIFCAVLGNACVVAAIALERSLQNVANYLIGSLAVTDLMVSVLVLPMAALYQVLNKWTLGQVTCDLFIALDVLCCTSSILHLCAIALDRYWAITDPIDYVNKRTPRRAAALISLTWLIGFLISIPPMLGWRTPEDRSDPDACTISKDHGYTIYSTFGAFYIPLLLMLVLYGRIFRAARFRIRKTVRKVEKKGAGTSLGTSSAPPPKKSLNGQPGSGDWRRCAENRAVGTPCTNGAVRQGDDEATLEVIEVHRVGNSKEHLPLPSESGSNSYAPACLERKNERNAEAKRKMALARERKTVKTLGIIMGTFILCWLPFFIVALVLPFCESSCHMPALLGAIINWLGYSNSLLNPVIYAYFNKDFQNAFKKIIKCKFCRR

D(3) dopamine receptor = D(3) dopamine receptor (Homo sapiens, UniProt P35462); test: DRUGMATRIX: Dopamine D3 radioligand binding (ligand: [3H] Spiperone); assay type: cell membranes, CHO, Membrane; conditions: cho
D(3) dopamine receptor, sequence (P35462 whole entry): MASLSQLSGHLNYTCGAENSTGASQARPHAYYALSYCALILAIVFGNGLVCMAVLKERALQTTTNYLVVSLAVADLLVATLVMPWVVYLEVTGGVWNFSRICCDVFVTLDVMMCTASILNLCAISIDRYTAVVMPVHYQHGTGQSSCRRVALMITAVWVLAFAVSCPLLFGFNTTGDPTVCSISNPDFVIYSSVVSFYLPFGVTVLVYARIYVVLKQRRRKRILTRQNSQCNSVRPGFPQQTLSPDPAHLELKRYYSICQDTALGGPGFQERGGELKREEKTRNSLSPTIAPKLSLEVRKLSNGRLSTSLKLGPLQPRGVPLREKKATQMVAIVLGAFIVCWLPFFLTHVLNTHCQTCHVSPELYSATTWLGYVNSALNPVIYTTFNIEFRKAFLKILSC

| SMILES | IC50 [1] | Ki [1] | IC50 (Melanocortin receptor 3) | IC50 ([2]; insect cells) | IC50 [3] | IC50 (Histamine H2 receptor) | IC50 [4] | IC50 [5] | Ki [5] | IC50 (Melanocortin receptor 5) | IC50 [6] | IC50 (Interstitial collagenase) | IC50 [7] | IC50 (D(3) dopamine receptor) | IC50 ([5]; read-out: IC50) | IC50 ([2]; read-out: IC50) |
| --- | --- | --- | --- | --- | --- | --- | --- | --- | --- | --- | --- | --- | --- | --- | --- | --- |
| CC(C)CC(N(C)C)C1(c2ccc(Cl)cc2)CCC1 (stereo not given) [SIBUTRAMINE] | Not Active | Not Active | Not Active | Not Active | Not Active | Not Active | Not Active | Not Active | Not Active | Not Active | Not Active | Not Active | Not Active | Not Active |  |  |
| [H]/N=C(/N)N[C@H]1[C@H](O)[C@@H](O)[C@H](O[C@@H]2O[C@@H](C)[C@](O)(C=O)[C@H]2O[C@@H]2O[C@@H](CO)[C@H](O)[C@@H](O)[C@@H]2NC)[C@@H](N/C(N)=N\[H])[C@@H]1O [STREPTOMYCIN] | Not Active | Not Active | Not Active | Not Active | Not Active | Not Active | Not Active | Not Active | Not Active | Not Active | Not Active | Not Active | Not Active | Not Active |  |  |
| COc1cc(NS(=O)(=O)c2ccc(N)cc2)nc(OC)n1 [SULFADIMETHOXINE] | Not Active | Not Active | Not Active | Not Active | Not Active | Not Active | Not Active | Not Active | Not Active | Not Active | Not Active | Not Active | Not Active | Not Active |  |  |
| Cc1cc(C)nc(NS(=O)(=O)c2ccc(N)cc2)n1 [SULFAMETHAZINE] | Not Active | Not Active | Not Active | Not Active | Not Active | Not Active | Not Active | Not Active | Not Active | Not Active | Not Active | Not Active | Not Active | Not Active |  |  |
| C[C@]1(Cn2ccnn2)[C@H](C(=O)O)N2C(=O)C[C@H]2S1(=O)=O [TAZOBACTAM] | Not Active | Not Active | Not Active | Not Active | Not Active | Not Active | Not Active |  |  | Not Active | Not Active | Not Active | Not Active | Not Active | 299 nM |  |
| CN1C(C(=O)Nc2ccccn2)=C(O)c2sccc2S1(=O)=O [TENOXICAM] | Not Active | Not Active | Not Active | Not Active | Not Active | Not Active | Not Active | Not Active | Not Active | Not Active | Not Active | Not Active | Not Active | Not Active |  |  |
| O=C1CCC(N2C(=O)c3ccccc3C2=O)C(=O)N1 (stereo not given) [THALIDOMIDE] | Not Active | Not Active | Not Active | Not Active | Not Active | Not Active | Not Active | Not Active | Not Active | Not Active | Not Active | Not Active | Not Active | Not Active |  |  |
| Cc1cccc(Nc2ccncc2S(=O)(=O)NC(=O)NC(C)C)c1 [TORSEMIDE] | Not Active | Not Active | Not Active | Not Active | Not Active | Not Active | Not Active | Not Active | Not Active | Not Active | Not Active | Not Active | Not Active | Not Active |  |  |
| CC(C)C[C@H](NC(=O)[C@@H](O)[C@H](N)Cc1ccccc1)C(=O)O [UBENIMEX] | Not Active | Not Active | Not Active | Not Active | Not Active | Not Active | Not Active | Not Active | Not Active | Not Active | Not Active | Not Active | Not Active | Not Active |  |  |
| Cc1onc(-c2ccccc2)c1-c1ccc(S(N)(=O)=O)cc1 [VALDECOXIB] | Not Active | Not Active | Not Active | Not Active | Not Active | Not Active | Not Active | Not Active | Not Active | Not Active | Not Active | Not Active | Not Active | Not Active |  |  |
| CC[C@]1(O)C[C@@H]2CN(CCc3c([nH]c4ccccc34)[C@@](C(=O)OC)(c3cc4c(cc3OC)N(C)[C@H]3[C@@](O)(C(=O)OC)[C@H](OC(C)=O)[C@]5(CC)C=CCN6CC[C@]43[C@@H]65)C2)C1 [VINBLASTINE] | Not Active | Not Active | Not Active | Not Active | Not Active | Not Active | Not Active | Not Active | Not Active | Not Active | Not Active | Not Active | Not Active | Not Active |  |  |
| CC(=O)CC(c1ccccc1)c1c(O)c2ccccc2oc1=O (stereo not given) [WARFARIN] | Not Active | Not Active | Not Active | Not Active | Not Active | Not Active | Not Active | Not Active | Not Active | Not Active | Not Active | Not Active | Not Active | Not Active |  |  |
| C[C@@H](N)[C@H]1CC[C@H](C(=O)Nc2ccncc2)CC1 [Y-27632] | Not Active | Not Active | Not Active | Not Active | Not Active | Not Active | Not Active | Not Active | Not Active | Not Active | Not Active | Not Active | Not Active | Not Active |  |  |
| [Cl-].[Cl-].[Zn+2] [ZINC CHLORIDE] | Not Active | Not Active | Not Active |  | Not Active | Not Active | Not Active | Not Active | Not Active | Not Active | Not Active | Not Active | Not Active | Not Active |  | 1880 nM |
